Laboratory results published in ChEMBL document CHEMBL1201862, “PubChem BioAssay data set” (2004).
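Five concentrations, 48 hours, 96-well plates. GI50: concentration for 50% inhibition of growth.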 Calls of active or inactive are those of the source. Cut-off read from the data, not from the text of the source: active = GI50 up to about 1.1 µM and inactive = higher.

Assays:
Assay in all cases: NCI anticancer screen, dose series, 48 h
DMS-114 = tested on: DMS-114
HOP-92 = tested on: HOP-92
786-0 = tested on: 786-0
SNB-78 = tested on: SNB-78
DMS-273 = tested on: DMS-273
HOP-62 = tested on: HOP-62
HCT-116 = tested on: HCT-116
SN12C = tested on: SN12C
SF-268 = tested on: SF-268
OVCAR-4 = tested on: OVCAR-4
UO-31 = tested on: UO-31
COLO 205 = tested on: COLO 205
SK-MEL-2 = tested on: SK-MEL-2
KM-20L2 = tested on: KM-20L2
SF-295 = tested on: SF-295
M14 = tested on: M14
SF-539 = tested on: SF-539
LXFL 529 = tested on: LXFL 529
EKVX = tested on: EKVX
DLD-1 = tested on: DLD-1
NCI-H23 = tested on: NCI-H23
M19-MEL = tested on: M19-MEL
RXF 393 = tested on: RXF 393
KM12 = tested on: KM12
Malme-3M = tested on: Malme-3M
CAKI-1 = tested on: CAKI-1
ACHN = tested on: ACHN
SNB-75 = tested on: SNB-75
XF498 = tested on: XF498
OVCAR-5 = tested on: OVCAR-5
NCI-H522 = tested on: NCI-H522
NCI-H226 = tested on: NCI-H226
SK-MEL-28 = tested on: SK-MEL-28
SNB-19 = tested on: SNB-19
SW-620 = tested on: SW-620
A549 = tested on: A549
NCI-H460 = tested on: NCI-H460
TK-10 = tested on: TK-10
UACC-257 = tested on: UACC-257
HCC 2998 = tested on: HCC 2998
HT-29 = tested on: HT-29
HL-60 = tested on: HL-60
OVCAR-8 = tested on: OVCAR-8
HOP-18 = tested on: HOP-18
LOX IMVI = tested on: LOX IMVI
U-251 = tested on: U-251
SR = tested on: SR
IGROV-1 = tested on: IGROV-1
K562 = tested on: K562
SK-OV-3 = tested on: SK-OV-3
A498 = tested on: A498
OVCAR-3 = tested on: OVCAR-3
MOLT-4 = tested on: MOLT-4
CCRF-CEM = tested on: CCRF-CEM
UACC-62 = tested on: UACC-62
HCT-15 = tested on: HCT-15
RPMI-8226 = tested on: RPMI-8226
SK-MEL-5 = tested on: SK-MEL-5

## CC(=O)Oc1ccc(O)c(O)c1C/C=C(\C)CC/C=C(\C)CC/C=C(\C)CCC=C(C)C [TETRAPRENYLPHENOLSUILLIN]
DMS-114
  GI50: 0.35 µM (active)
HOP-92
  GI50: 0.309 µM (active)
786-0
  GI50: 1.1 µM (active)
SNB-78
  GI50: 0.272 µM (active)
DMS-273
  GI50: 0.246 µM (active)
HOP-62
  GI50: 1.24 µM (inactive)
HCT-116
  GI50: 0.287 µM (active)
SN12C
  GI50: 0.272 µM (active)
SF-268
  GI50: 0.446 µM (active)
OVCAR-4
  GI50: 0.426 µM (active)
UO-31
  GI50: 1.42 µM (inactive)
COLO 205
  GI50: 0.157 µM (active)
SK-MEL-2
  GI50: 1.16 µM (inactive)
KM-20L2
  GI50: 0.946 µM (active)
SF-295
  GI50: 0.746 µM (active)
M14
  GI50: 1.51 µM (inactive)
SF-539
  GI50: 0.407 µM (active)
LXFL 529
  GI50: 0.284 µM (active)
EKVX
  GI50: 1.55 µM (inactive)
DLD-1
  GI50: 0.34 µM (active)
NCI-H23
  GI50: 0.429 µM (active)
M19-MEL
  GI50: 0.393 µM (active)
RXF 393
  GI50: 1.2 µM (inactive)
KM12
  GI50: 0.476 µM (active)
Malme-3M
  GI50: 0.274 µM (active)
CAKI-1
  GI50: 2.65 µM (inactive)
ACHN
  GI50: 0.275 µM (active)
SNB-75
  GI50: 0.439 µM (active)
XF498
  GI50: 0.357 µM (active)
OVCAR-5
  GI50: 0.596 µM (active)
NCI-H522
  GI50: 1.51 µM (inactive)
NCI-H226
  GI50: 0.692 µM (active)
SK-MEL-28
  GI50: 0.656 µM (active)
SNB-19
  GI50: 0.424 µM (active)
SW-620
  GI50: 0.3 µM (active)
A549
  GI50: 0.34 µM (active)
NCI-H460
  GI50: 0.365 µM (active)
TK-10
  GI50: 1.32 µM (inactive)
UACC-257
  GI50: 0.65 µM (active)
HCC 2998
  GI50: 0.871 µM (active)
HT-29
  GI50: 0.338 µM (active)
HL-60
  GI50: 1.39 µM (inactive)
OVCAR-8
  GI50: 0.392 µM (active)
HOP-18
  GI50: 0.187 µM (active)
LOX IMVI
  GI50: 0.247 µM (active)
U-251
  GI50: 0.346 µM (active)
SR
  GI50: 0.0564 µM (active)

## O=C1OC(c2cccc(C(F)(F)F)c2)(c2cccc(C(F)(F)F)c2)c2ccc3ccccc3c21
DMS-114
  GI50: 6.18 µM (inactive)
HOP-92
  GI50: 28.8 µM (inactive)
786-0
  GI50: > 10 µM (inactive)
SNB-78
  GI50: > 10 µM (inactive)
DMS-273
  GI50: > 10 µM (inactive)
IGROV-1
  GI50: > 10 µM (inactive)
HOP-62
  GI50: > 10 µM (inactive)
HCT-116
  GI50: 8.45 µM (inactive)
K562
  GI50: 8.04 µM (inactive)
SN12C
  GI50: > 10 µM (inactive)
SK-OV-3
  GI50: > 10 µM (inactive)
A498
  GI50: > 10 µM (inactive)
SF-268
  GI50: 9.59 µM (inactive)
OVCAR-3
  GI50: 4.23 µM (inactive)
OVCAR-4
  GI50: > 10 µM (inactive)
UO-31
  GI50: > 10 µM (inactive)
COLO 205
  GI50: > 10 µM (inactive)
SK-MEL-2
  GI50: > 10 µM (inactive)
KM-20L2
  GI50: 7.67 µM (inactive)
SF-295
  GI50: 15.2 µM (inactive)
M14
  GI50: > 10 µM (inactive)
SF-539
  GI50: > 100 µM (inactive)
LXFL 529
  GI50: 8.24 µM (inactive)
EKVX
  GI50: > 10 µM (inactive)
DLD-1
  GI50: > 10 µM (inactive)
NCI-H23
  GI50: 7.85 µM (inactive)
RXF 393
  GI50: 5.65 µM (inactive)
KM12
  GI50: 79.1 µM (inactive)
Malme-3M
  GI50: 4.79 µM (inactive)
CAKI-1
  GI50: 26.7 µM (inactive)
ACHN
  GI50: 3.64 µM (inactive)
SNB-75
  GI50: > 10 µM (inactive)
XF498
  GI50: > 100 µM (inactive)
OVCAR-5
  GI50: > 10 µM (inactive)
MOLT-4
  GI50: 4.66 µM (inactive)
NCI-H522
  GI50: > 10 µM (inactive)
CCRF-CEM
  GI50: 7.85 µM (inactive)
NCI-H226
  GI50: 85.5 µM (inactive)
UACC-62
  GI50: > 10 µM (inactive)
SK-MEL-28
  GI50: > 10 µM (inactive)
HCT-15
  GI50: 9.25 µM
RPMI-8226
  GI50: 4.24 µM (inactive)
SNB-19
  GI50: 11.2 µM (inactive)
SW-620
  GI50: > 10 µM (inactive)
A549
  GI50: > 10 µM (inactive)
NCI-H460
  GI50: > 10 µM (inactive)
TK-10
  GI50: > 10 µM (inactive)
UACC-257
  GI50: 13.1 µM (inactive)
HCC 2998
  GI50: > 10 µM (inactive)
HT-29
  GI50: > 10 µM (inactive)
HL-60
  GI50: 3.56 µM (inactive)
OVCAR-8
  GI50: > 10 µM (inactive)
HOP-18
  GI50: > 10 µM (inactive)
SK-MEL-5
  GI50: 4.59 µM (inactive)
LOX IMVI
  GI50: > 10 µM (inactive)
U-251
  GI50: 8.39 µM (inactive)
SR
  GI50: > 10 µM (inactive)

## Cc1ccc(NC(=O)C(=O)C2NC(=S)NC2=O)c([N+](=O)[O-])c1 (configuration not stated)
DMS-114
  GI50: > 100 µM (inactive)
HOP-92
  GI50: 45.5 µM (inactive)
786-0
  GI50: > 100 µM (inactive)
SNB-78
  GI50: > 100 µM (inactive)
DMS-273
  GI50: > 100 µM (inactive)
IGROV-1
  GI50: > 100 µM (inactive)
HOP-62
  GI50: > 100 µM (inactive)
HCT-116
  GI50: > 100 µM (inactive)
K562
  GI50: > 100 µM (inactive)
SN12C
  GI50: > 100 µM (inactive)
SK-OV-3
  GI50: > 100 µM (inactive)
A498
  GI50: > 100 µM (inactive)
SF-268
  GI50: > 100 µM (inactive)
OVCAR-3
  GI50: > 100 µM (inactive)
OVCAR-4
  GI50: > 100 µM (inactive)
UO-31
  GI50: > 100 µM (inactive)
COLO 205
  GI50: > 100 µM (inactive)
SK-MEL-2
  GI50: > 100 µM (inactive)
KM-20L2
  GI50: > 100 µM (inactive)
SF-295
  GI50: > 100 µM (inactive)
M14
  GI50: > 100 µM (inactive)
SF-539
  GI50: > 100 µM (inactive)
LXFL 529
  GI50: > 100 µM (inactive)
EKVX
  GI50: 57.3 µM (inactive)
DLD-1
  GI50: > 100 µM (inactive)
NCI-H23
  GI50: > 100 µM (inactive)
M19-MEL
  GI50: > 100 µM (inactive)
RXF 393
  GI50: > 100 µM (inactive)
KM12
  GI50: > 100 µM (inactive)
Malme-3M
  GI50: > 100 µM (inactive)
CAKI-1
  GI50: > 100 µM (inactive)
ACHN
  GI50: > 100 µM (inactive)
SNB-75
  GI50: > 100 µM (inactive)
XF498
  GI50: > 100 µM (inactive)
OVCAR-5
  GI50: > 100 µM (inactive)
MOLT-4
  GI50: > 100 µM (inactive)
NCI-H522
  GI50: > 100 µM (inactive)
CCRF-CEM
  GI50: > 100 µM (inactive)
NCI-H226
  GI50: > 100 µM (inactive)
UACC-62
  GI50: > 100 µM (inactive)
SK-MEL-28
  GI50: > 100 µM (inactive)
HCT-15
  GI50: > 100 µM
RPMI-8226
  GI50: > 100 µM (inactive)
SNB-19
  GI50: > 100 µM (inactive)
SW-620
  GI50: > 100 µM (inactive)
A549
  GI50: > 100 µM (inactive)
NCI-H460
  GI50: > 100 µM (inactive)
TK-10
  GI50: > 100 µM (inactive)
UACC-257
  GI50: > 100 µM (inactive)
HCC 2998
  GI50: > 100 µM (inactive)
HT-29
  GI50: > 100 µM (inactive)
HL-60
  GI50: > 100 µM (inactive)
OVCAR-8
  GI50: > 100 µM (inactive)
HOP-18
  GI50: > 100 µM (inactive)
SK-MEL-5
  GI50: > 100 µM (inactive)
LOX IMVI
  GI50: > 100 µM (inactive)
U-251
  GI50: > 100 µM (inactive)
SR
  GI50: > 100 µM (inactive)
